Measured values published in US20080207669A1, “(S)-N-Stereoisomers of 7,8-Saturated-4,5-Epoxy-Morphinanium Analogs” (Progenics Pharmaceuticals, Inc., priority 2006, published 2008).

Assays:
μ receptors = μ receptors (Homo sapiens, UniProt P35372); experiment: Opiate receptor radioligand binding, competition with diprenorphine, naltrexone control; conditions: compared to naltrexone control; test concentration not given
Source text: Opiate Receptor Binding of (S)-7,8-saturated-4,5α-epoxy-morphinaniums. Radioligand binding assays may be conducted to determine the binding specificity of an (S)-7,8-saturated-4,5-epoxy-morphinanium for μ-, κ-, and δ-opiate receptors using methods adapted from scientific literature (Simonin, F et al 1994, Mol. Pharmacol. 46:1015-1021; Maguire, P. et al 1992, Eur. J. Pharmacol. 213:219-225; Simonin, F. et al PNAS USA 92(15):1431-1437; Wang, J B 1994, FEBS Lett 338:217-222). For example, a membrane may be associated with human opioid receptor material. Diprenorphine which has an affinity for all […] opioid receptors, can be used as a competitive challenge to the test compound. Membranes can then be separated, and the binding of the test compounds to the receptor material can be determined by scintillation counting. A control, such as naltrexone, can be used to determine relative binding affinity.

[1] = biological target: T1, μ-opioid receptors in the guinea pig ileum (Cavia porcellus, UniProt A0ACM8Q262); experiment: Field-stimulated guinea pig ileum, evaluation of antagonist activity against DAMGO; conditions: for remaining activity at 100 µM / remaining activity at 10 µM / remaining activity at 1 µM / remaining activity at 0.1 µM / remaining activity at 0.01 µM / remaining activity at 30 µM / remaining activity at 3 µM / remaining activity at 0.3 µM / remaining activity at 0.03 µM: guinea pig, mean, n=2, read-out: Response to DAMGO (1.0E-07 M) in the presence of the compound, percent of the control response to DAMGO; for remaining activity at 100 µM: compound 1.0E-04 M; for remaining activity at 10 µM: compound 1.0E-05 M; for remaining activity at 1 µM: compound 1.0E-06 M; for remaining activity at 0.1 µM: compound 1.0E-07 M; for remaining activity at 0.01 µM: compound 1.0E-08 M; for remaining activity at 30 µM: compound 3.0E-05 M; for remaining activity at 3 µM: compound 3.0E-06 M; for remaining activity at 0.3 µM: compound 3.0E-07 M; for remaining activity at 0.03 µM: compound 3.0E-08 M; for Antagonist activity IC50 value: inhibition of the response to DAMGO, guinea pig ileum
T1 sequence (A0ACM8Q262 1-400): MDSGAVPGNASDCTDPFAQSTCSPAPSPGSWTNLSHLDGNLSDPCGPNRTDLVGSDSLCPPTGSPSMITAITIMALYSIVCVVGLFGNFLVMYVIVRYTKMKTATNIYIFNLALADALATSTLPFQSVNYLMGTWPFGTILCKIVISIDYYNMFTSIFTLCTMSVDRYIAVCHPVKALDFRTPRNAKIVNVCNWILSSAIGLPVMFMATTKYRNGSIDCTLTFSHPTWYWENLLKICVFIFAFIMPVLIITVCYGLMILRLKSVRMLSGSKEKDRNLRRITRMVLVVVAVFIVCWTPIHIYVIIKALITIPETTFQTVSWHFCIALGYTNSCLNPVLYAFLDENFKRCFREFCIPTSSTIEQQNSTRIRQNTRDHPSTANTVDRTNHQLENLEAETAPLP
Experimental: (§1) In Vitro Pharmacology of (S)-7,8-saturated-4,5α-epoxy-morphinaniums on μ receptor. Mμ-receptor agonist/antagonist activity may be adjudged by use of field-stimulated guinea pig ileum by methods known in the art. For example, segments of guinea pig terminal ileum may be suspended in 20-ml organ baths filled with an oxygenated (95% O2 and 5% CO2) and pre-warmed (37° C.) physiological salt solution of the following composition (in mM): NaCl 118.0, KCl 4.7, MgSO4 1.2, CaCl2 2.5, KH2PO4 1.2, NaHCO3 25.0 and glucose 11.0 (pH 7.4). Additional experimental conditions that may be followed are described in Hutchinson et al. (1975) Brit. J. Pharmacol., 55:541-546.
(§2) Indomethacin (1 μM), nor-binaltorphimine (0.01 μM), methysergide (1 μM), ondansetron (10 μM) and GR113808 (0.1 μM) may be also present throughout an experiment to prevent prostanoid release and to block the k-opioid, 5-HT2, 5-HT3 and 5-HT4 receptors, respectively. The tissues in such tests are typically connected to force transducers for isometric tension recordings. The tissue may be stretched to a resting tension, for example, of 1 g then allowed to equilibrate, for example, about 60 min during which time they may be washed repeatedly and the tension readjusted. Electrical stimulation with pulses of minimal intensity to trigger maximal contractions and a short duration, for example, 1 ms duration, delivered by a constant current stimulator at a frequency such a 0.1 Hz.
Exemplary Test for Antagonist Activity. The tissues may be exposed to a submaximal concentration of the reference agonist DAMGO (0.1 μM) to obtain a control response. […] Each concentration may be left in contact with the tissues until a stable response is obtained or for a maximum time, such as 15 min. The maximum change in the amplitude of the electrically-evoked twitch contractions induced by each compound concentration may be measured. […] The EC50 value (concentration producing a half-maximum response) or IC50 value (concentration causing a half-maximum inhibition of the response to DAMGO) may be determined by linear regression analysis of the concentration-response curves. Inhibition of the DAMGO-induced response by the (S)-7,8-saturated-4,5-epoxy-morphinanium may indicate an antagonist activity at the μ receptors.

[2] = biological target: T1, μ-opioid receptors in the guinea pig ileum; experiment: Field-stimulated guinea pig ileum, evaluation of agonist activity; conditions: for activation at 100 µM: 1.0E-04 M; for activation at 10 µM: 1.0E-05 M; for activation at 0.1 µM: 1.0E-07 M; for activation at 0.01 µM: 1.0E-08 M; for activation at 30 µM: 3.0E-05 M; for activation at 3 µM: 3.0E-06 M; for activation at 0.3 µM: 3.0E-07 M; for activation at 0.03 µM: 3.0E-08 M; for Response to compound + Naloxone, percent of the control response to DAMGO: compound 1.0E-04 M + Naloxone 1.0E-07 M; for activation at 1 µM: 1.0E-06 M
Experimental: as §1, §2
Exemplar Test for Agonist Activity. The tissues may be exposed to a submaximal concentration of the reference agonist DAMGO (0.1 μM) to verify responsiveness and to obtain a control response. Following extensive washings and recovery of the control twitch contractions, the tissues may be exposed to increasing concentrations of the (S)-7,8-saturated-4,5-epoxy-morphinanium or the same agonist. The different concentrations may be added cumulatively and each left in contact with the tissues until a stable response is obtained or for a maximum of 15 min.

[3] = mean, n=2, read-out: Response to compound (decrease in twitch contraction amplitude), percent of the control response to DAMGO

Sequence of μ receptors (P35372 whole entry): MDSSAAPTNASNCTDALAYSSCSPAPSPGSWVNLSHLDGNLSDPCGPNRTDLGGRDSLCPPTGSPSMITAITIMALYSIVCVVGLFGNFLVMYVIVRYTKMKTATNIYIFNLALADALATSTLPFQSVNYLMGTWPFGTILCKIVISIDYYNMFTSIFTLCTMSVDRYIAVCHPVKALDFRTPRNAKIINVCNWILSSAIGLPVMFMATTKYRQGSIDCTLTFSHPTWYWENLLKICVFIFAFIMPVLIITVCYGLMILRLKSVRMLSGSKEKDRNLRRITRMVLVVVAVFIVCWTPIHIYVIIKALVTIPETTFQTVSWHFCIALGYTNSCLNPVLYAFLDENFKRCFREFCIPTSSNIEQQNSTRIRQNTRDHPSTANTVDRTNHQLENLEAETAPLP

| Structure (SMILES) | inhibition of control specific binding at the μ receptor (μ receptors) [%] | remaining activity at 100 µM [1] [%] | remaining activity at 10 µM [1] [%] | remaining activity at 1 µM [1] [%] | remaining activity at 0.1 µM [1] [%] | remaining activity at 0.01 µM [1] [%] | remaining activity at 30 µM [1] [%] | remaining activity at 3 µM [1] [%] | remaining activity at 0.3 µM [1] [%] | remaining activity at 0.03 µM [1] [%] | Antagonist activity IC50 value [1] | activation at 100 µM [2, 3] [%] | activation at 10 µM [2, 3] [%] | activation at 0.1 µM [2, 3] [%] | activation at 0.01 µM [2, 3] [%] | activation at 30 µM [2, 3] [%] | activation at 3 µM [2, 3] [%] | activation at 0.3 µM [2, 3] [%] | activation at 0.03 µM [2, 3] [%] | Response to compound + Naloxone, percent of the control response to DAMGO ([2]; mean, n=2) [%] | also measured |
| --- | --- | --- | --- | --- | --- | --- | --- | --- | --- | --- | --- | --- | --- | --- | --- | --- | --- | --- | --- | --- | --- |
| C=CC[N+]1(CC2CC2)CC[C@]23c4c5ccc(O)c4O[C@H]2C(=O)CC[C@@]3(O)[C@H]1C5 (stereo partly drawn) [(S)-17-Allyl-17-cyclopropylmethyl-4,5α-epoxy-3,14-di-hydroxy-6-oxomorphinanium Iodide] | 68 |  |  |  |  |  |  |  |  |  |  |  |  |  |  |  |  |  |  |  |  |
| CC(C)=CC[N+]1(C)CC[C@]23c4c5ccc(O)c4O[C@H]2C(=O)CC[C@@]3(O)[C@H]1C5.[I-] (stereo partly drawn) [(S)-DMAM, (S)-17-(3,3-dimethylallyl)-4,5α-epoxy-3,14-di-hydroxy-17-methyl-6-oxomorphinanium iodide] |  | 113 | 110 | 101 | 100 | 100 | 113 | 105 | 100 | 100 | No antagonist activity | 101 | 93 | 8 | 0 | 99 | 77 | 19 | 0 | 77 | EC50 ([2]; read-out: Agonist activity EC50 value, concentration producing a half-maximum response, guinea pig ileum): 1300 nM |
| C[C@@H](NC(=O)[C@@H](N)Cc1ccc(O)cc1)C(=O)NCC(=O)N(C)[C@@H](Cc1ccccc1)C(=O)NCCO [DAMGO, reference compound] |  |  |  |  |  |  |  |  |  |  |  |  |  | 96 | 57 |  |  |  |  |  | activation at 1 µM [2, 3]: 103%; activation at 0.001 µM ([2]; 1.0E-09 M, mean, n=2, read-out: Response to compound (decrease in twitch contraction amplitude), percent of the control response to DAMGO): 9%; Response to DAMGO + Naloxone, percent of the control response to DAMGO ([2]; highest DAMGO concentration + Naloxone 1.0E-07 M, mean, n=2): 4% |
| CC(C)=CC[N+]1(C)CC[C@]23c4c5ccc(O)c4O[C@H]2C(=O)CC[C@@]3(O)[C@H]1C5.[I-] (stereo partly drawn) [(S)-17-(3,3-dimethylallyl)-4,5α-epoxy-3,14-di-hydroxy-17-methyl-6-oxomorphinanium iodide] | 65 |  |  |  |  |  |  |  |  |  |  |  |  |  |  |  |  |  |  |  |  |
| C[N+]1(CC#Cc2ccccc2)CC[C@]23c4c5ccc(O)c4O[C@H]2C(=O)CC[C@@]3(O)[C@H]1C5 (stereo partly drawn) [(S)-PM] | 80 | 110 | 100 | 100 | 100 | 100 | 100 | 100 | 100 | 100 | No antagonist activity | 89 | 53 | 6 | 0 | 71 | 38 | 12 | 0 | 30 | activation at 1 µM [2, 3]: 25% |
